Data reported in patent US8685974B2 (Bayer CropScience AG, priority 2009, dated 2014).
Several values for one entry are separate records, joined by “and”; a condition that tells them apart may be missing. Equal values may be shown once. Read-outs that look alike come from different tables or passages of the source. Marks after values point to notes of the source that are not given here.

Assays:
[1] = test system: Pyrenophora teres; assay: In vivo test on Pyrenophora teres (barley net blotch); conditions: dose of 500 ppm; barley plants; grading 12 days after contamination
How it was run: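 Barley plants (Plaisant) grown at 12° C. sprayed at 1-leaf stage with compound in acetone/Tween/DMSO diluted in water; 24 h later inoculated with P. teres spores (12,000 spores/ml). Incubated 24 h at ~20° C., 100% RH, then 12 days at 80% RH; graded 12 days post-inoculation against untreated controls.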

[2] = test system: Fusarium graminearum; type: cell-based; conditions: 50 μM; for % Inhibition of DON/AcDON at 50 μM: 7 days at 28° C.
[3] = test system: Alternaria solani; assay: Alternaria test (tomato) / protective; type: in vivo; conditions: 500 ppm active compound, protective spray, evaluated 7 days after inoculation
How it was run: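 Young tomato plants sprayed protectively with compound formulated in DMF with alkylaryl polyglycol ether emulsifier and diluted in water to the application rate. After inoculation, plants held at 96% rel. humidity and 20° C. Efficacy scored 7 days post-inoculation: 0% equals untreated control, 100% no infection.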

[4] = logP by HPLC at pH 2.3 (0.1% phosphoric acid / acetonitrile); type: physicochemical; conditions: method [a]: pH 2.3 with 0.1% phosphoric acid and acetonitrile as eluent
[5] = for logP value of the minor isomer (in parenthesis in column Isomer ratio [d]): main value of the example measured by method [b]
[6] = test system: Puccinia recondita; assay: In vivo test on Puccinia recondita (brown rust); conditions: dose of 500 ppm; wheat plants; grading 10 days after contamination
Protocol: In Vivo Test on Puccinia recondita (Brown Rust)
(§1) The active ingredients tested are prepared by homogenization in a mixture of acetone/tween/DMSO, then diluted with water to obtain the desired active material.
Wheat plants (Scipion variety) sown on 50/50 peat soil-pozzolana substrate in starter cups and grown at 12° C., are treated at the 1-leaf stage (10 cm tall) by spraying with the aqueous suspension described above.
(§2) Plants, used as controls, are treated with an aqueous solution not containing the active material.
After 24 hours, the plants are contaminated by spraying the leaves with an aqueous suspension of Puccinia recondita spores (100,000 spores per ml). The spores are collected from a 10-day-old contaminated wheat and are suspended in water containing 2.5 ml/l of tween 80 10%. The contaminated wheat plants are incubated for 24 hours at 20° C. and at 100% relative humidity, and then for 10 days at 20° C. and at 70% relative humidity.
Grading is carried out 10 days after the contamination, in comparison with the control plants.

[7] = test system: Peronospora parasitica; assay: In vivo test on Peronospora parasitica (crucifer downy mildew); conditions: dose of 500 ppm; cabbage plants; grading 5 days after contamination
Protocol: In Vivo Test on Peronospora parasitica (Crucifer Downy Mildew)
The active ingredients tested are prepared by homogenization in a mixture of acetone/Tween/DMSO, then diluted with water to obtain the desired active material concentration.
Cabbage plants (Eminence variety) in starter cups, sown on a 50/50 peat soil-pozzolana substrate and grown at 18-20° C., are treated at the cotyledon stage by spraying with the aqueous suspension described above.
as §2
After 24 hours, the plants are contaminated by spraying them with an aqueous suspension of Peronospora parasitica spores (50 000 spores per ml). The spores are collected from infected plant.
The contaminated cabbage plants are incubated for 5 days at 20° C., under a humid atmosphere.
Grading is carried out 5 days after the contamination, in comparison with the control plants.

[8] = test system: Rhizoctonia solani; assay: Rhizoctonia test (rice) / protective; type: in vivo; conditions: 500 ppm active compound, protective spray, evaluated 4 days after inoculation
Protocol: Rhizoctonia Test (Rice)/Protective
Solvent: 28.5 parts by weight of acetone
Emulsifier: 1.5 parts by weight of polyoxyethylene alkyl phenyl ether
To produce a suitable preparation of active compound, 1 part by weight of active compound is mixed with the stated amounts of solvent and emulsifier, and the concentrate is diluted with water to the desired concentration.
To test for protective activity, young plants are sprayed with the preparation of active compound at the stated rate of application. One day after spraying, the plants are inoculated with a hypha of the causal agent of rice sheath blight (Rhizoctonia solani). The plants are then placed in an incubator at approximately 25° C. and a relative atmospheric humidity of approximately 100%.
The test is evaluated 4 days after the inoculation. 0% means an efficacy which corresponds to that of the control, while an efficacy of 100% means that no disease is observed.

[9] = test system: Mycosphaerella graminicola; assay: In vivo test on Mycosphaerella graminicola (wheat leaf spot); conditions: dose of 500 ppm; wheat plants; grading 21 to 28 days after contamination
Protocol: In Vivo Test on Mycosphaerella graminicola (Wheat Leaf Spot)
The active ingredients tested are prepared by homogenization in a mixture of acetone/tween/DMSO, then diluted with water to obtain the desired active material concentration.
Wheat plants (Scipion variety), sown on a 50/50 peat soil-pozzolana substrate in starter cups and grown at 12° C., are treated at the 1-leaf stage (10 cm tall) by spraying with the aqueous suspension described above. Plants, used as controls, are treated with an aqueous solution not containing the active material.
After 24 hours, the plants are contaminated by spraying them with an aqueous suspension of Mycosphaerella graminicola spores (500 000 spores per ml). The spores are collected from a 7-day-old culture. The contaminated wheat plants are incubated for 72 hours at 18° C. and at 100% relative humidity, and then for 21 to 28 days at 90% relative humidity.
Grading (% of efficacy) is carried out 21 to 28 days after the contamination, in comparison with the control plants.

[10] = test system: Botrytis cinerea; assay: In vivo test on Botrytis cinerea (grey mould); conditions: dose of 500 ppm; gherkin plants; grading 5/7 days after contamination
Protocol: In Vivo Test on Botrytis cinerea (Grey Mould)
The active ingredients tested are prepared by homogenization in a mixture of acetone/Tween/DMSO, then diluted with water to obtain the desired active material
Gherkin plants (Vert petit de Paris variety), sown on a 50/50 peat soil-pozzolana substrate in starter cups and grown at 18-20° C., are treated at the cotyledon Z11 stage by spraying with the active ingredient prepared as described above.
as §2
After 24 hours, the plants are contaminated by depositing drops of an aqueous suspension of Botrytis cinerea spores (150,000 spores per ml) on upper surface of the leaves. The spores are collected from a 15-day-old culture and are suspended in a nutrient solution composed of: • 20 g/L of gelatine; • 50 g/L of D-fructose; • 2 g/L of NH4NO3; • 1 g/L of KH2PO4.
The contaminated cucumber plants are settled for 5/7 days in a climatic room at 15-11° C. (day/night) and at 80% relative humidity.
Grading is carried out 5/7 days after the contamination, in comparison with the control plants.

[11] = test system: Sphaerotheca fuliginea; assay: In vivo test on Sphaerotheca fuliginea (cucurbits powdery mildew); conditions: dose of 500 ppm; gherkin plants; grading 12 days after contamination
Protocol: In Vivo Test on Sphaerotheca fuliginea (Cucurbits Powdery Mildew)
as §1
Gherkin plants (Vert petit de Paris variety) in starter cups, sown on a 50/50 peat soil-pozzolana substrate and grown at 20° C./23° C., are treated at the cotyledon Z10 stage by spraying with the aqueous suspension described above. Plants, used as controls, are treated with an aqueous solution not containing the active material.
After 24 hours, the plants are contaminated by spraying them with an aqueous suspension of Sphaerotheca fuliginea spores (100 000 spores per ml). The spores are collected from a contaminated plants. The contaminated gherkin plants are incubated at about 20° C./25° C. and at 60/70% relative humidity.
Grading (% of efficacy) is carried out 12 days after the contamination, in comparison with the control plants.

[12] = test system: Fusarium proliferatum; assay: Production of fumonisin FB1 by Fusarium proliferatum (microtiter plate, HPLC-MS/MS and OD620); type: cell-based; conditions: for % inhibition FB1 production at 50 μM: 5 days at 20° C., HPLC-MS/MS; for % inhibition fungal growth at 50 μM: Fusarium proliferatum, OD620 at start and after 5 days
[13] = test system: Leptosphaeria nodorum; assay: Leptosphaeria nodorum test (wheat) / protective; type: in vivo; conditions: 500 ppm active compound, protective spray, evaluated 7-9 days after inoculation
How it was run: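 Young wheat plants sprayed protectively with compound in DMF/alkylaryl polyglycol ether emulsion diluted in water, then kept in greenhouse at 90% rel. humidity, 22° C. Scored 7-9 days after inoculation as % efficacy, 0% equal to untreated control and 100% no infection.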

CC(=O)Nc1cc(-c2cn(CC(C)C)nc2-c2ccc(Cl)s2)ccn1 [Example 358]
protection [1]: 80%
% Inhibition of fungal growth at 50 μM [2]: 102%
% Inhibition of DON/AcDON at 50 μM [2]: 100%
efficacy [3]: 100%
log p [4]: 2.96^[a]

CC(C)Cn1cc(-c2ccnc(NS(C)(=O)=O)c2)c(-c2ccc(Cl)s2)n1 [Example 362]
log p [4]: 3.04^[a]

CC(=O)n1cc(-c2ccncc2)c(-c2ccc(Cl)s2)n1 [Example 86]
log p ([5]; pH 2.7): 2.04^[b]
protection [6]: 75%
protection [7]: 92%

ClC(Cl)=CCn1cc(-c2ccncc2)c(-c2ccc(Cl)s2)n1 [Example 50]
logP value of the minor isomer (in parenthesis in column Isomer ratio [d]) ([5]; pH 2.7): (2.07)
log p ([5]; pH 2.7): 2.3^[b]
protection [1]: 70%
efficacy [8]: 93%

CC(C)Cn1cc(-c2ccnc(NC(=O)OC(C)C)c2)c(-c2ccc(Cl)s2)n1 [Example 319]
log p [4]: 5.15^[a]

CC(C)Nc1nccc(-c2c[nH]nc2-c2ccc(Cl)s2)n1 [Example 312]
% Inhibition of fungal growth at 50 μM [2]: 87%
% Inhibition of DON/AcDON at 50 μM [2]: 99%
log p [4]: 1.79^[a]

COCn1cc(-c2ccncc2)c(-c2ccc(Cl)s2)n1 [Example 52]
log p ([5]; pH 2.7): 1.38^[b]
protection (% of efficacy) [9]: 97%
protection [6]: 97%
protection [10]: at least 70%
protection [1]: 86%
protection (% of efficacy) [11]: 90%

CC(C)Cn1cc(-c2ccncc2)c(-c2ccc(Cl)s2)n1 [Example 21]
log p ([5]; pH 2.7): 2.08^[b]
protection (% of efficacy) [9]: 85%
protection [6]: 75% and 85%
protection [10]: 100%
protection [1]: 100%
% Inhibition of fungal growth at 50 μM [2]: 96%
% Inhibition of DON/AcDON at 50 μM [2]: 100%
% inhibition FB1 production at 50 μM [12]: 100%
% inhibition fungal growth at 50 μM [12]: 91%
protection (% of efficacy) [11]: 89%

CC(C)CCn1cc(-c2ccncc2)c(-c2ccc(Cl)s2)n1 [Example 17]
log p ([5]; pH 2.7): 2.45^[b]
protection (% of efficacy) [9]: 70%
protection [6]: 70%
protection [1]: 100%

FCCn1cc(-c2ccncc2)c(-c2ccc(Cl)s2)n1 [Example 62]
logP value of the minor isomer (in parenthesis in column Isomer ratio [d]) ([5]; pH 2.7): (1.25)
log p ([5]; pH 2.7): 1.39^[b]
protection [6]: 88%
protection [10]: 98%
protection [7]: 89%
protection (% of efficacy) [11]: 94%

CC(C)Cn1cc(-c2ccnc(NC(=O)C3CCC3)c2)c(-c2ccc(Cl)s2)n1 [Example 361]
efficacy [3]: 94%
log p [4]: 3.96^[a]

CCNC(=O)Nc1cc(-c2cn(CC(C)C)nc2-c2ccc(Cl)s2)ccn1 [Example 321]
% Inhibition of fungal growth at 50 μM [2]: 39%
% Inhibition of DON/AcDON at 50 μM [2]: 92%
log p [4]: 3.18^[a]

CC(C)Cn1ncc(-c2ccncc2)c1-c1ccc(Cl)s1 [Example 6]
log p ([5]; pH 2.3): 2.2^[a]
protection (% of efficacy) [9]: 70%
protection [6]: 70%
protection (% of efficacy) [11]: 75%

Clc1ccc(-c2nn(C3CCC3)cc2-c2ccncc2)s1 [Example 18]
log p ([5]; pH 2.7): 2.04^[b]
protection [6]: 89%
protection [10]: 100%
protection [1]: 100%
protection (% of efficacy) [11]: 83%

ClCCn1cc(-c2ccncc2)c(-c2ccc(Cl)s2)n1 [Example 55]
logP value of the minor isomer (in parenthesis in column Isomer ratio [d]) ([5]; pH 2.7): (1.50)
log p ([5]; pH 2.7): 1.65^[b]
protection [10]: 75%
protection [1]: 80%

Clc1ccc(-c2n[nH]cc2-c2ccncc2)s1 [Example 1]
log p ([5]; pH 2.7): 0.96^[b]
protection (% of efficacy) [9]: 75%
protection [1]: 90%
% inhibition FB1 production at 50 μM [12]: 82%
% inhibition fungal growth at 50 μM [12]: 41%

Clc1ccc(-c2nn(C3CCCCO3)cc2-c2ccncc2)s1 (stereo not drawn) [Example 45]
log p ([5]; pH 2.7): 1.91^[b]
protection (% of efficacy) [9]: 71%

COCC(=O)Nc1cc(-c2cn(CC(C)C)nc2-c2ccc(Cl)s2)ccn1 [Example 360]
% Inhibition of fungal growth at 50 μM [2]: 12%
% Inhibition of DON/AcDON at 50 μM [2]: 100%
efficacy [3]: 78%
log p [4]: 3.78^[a]

CCn1cc(-c2ccnc(N=C(c3ccccc3)c3ccccc3)c2)c(-c2ccc(Cl)s2)n1 [Example 311]
efficacy [3]: 70%
log p [4]: 3.99^[a]

Clc1ccc(-c2n[nH]cc2-c2ccncn2)s1 [Example 3]
log p ([5]; pH 2.3): 1.82^[a];
log p ([5]; pH 2.7): 1.74^[b]
protection (% of efficacy) [9]: 86%
% inhibition FB1 production at 50 μM [12]: 99%
% inhibition fungal growth at 50 μM [12]: 46%

CC(C)Cn1cc(-c2ccnc(NC(=O)C3CC3)c2)c(-c2ccc(Cl)s2)n1 [Example 359]
protection [1]: 70%
efficacy [13]: 90%
% Inhibition of fungal growth at 50 μM [2]: 62%
% Inhibition of DON/AcDON at 50 μM [2]: 100%
efficacy [3]: 94%
log p [4]: 3.48^[a]

Clc1ccc(-c2nn(C3CCCC3)cc2-c2ccncc2)s1 [Example 15]
log p ([5]; pH 2.7): 2.25^[b]
protection [10]: 100%
protection [1]: 89%
protection (% of efficacy) [11]: 92%

CC(C)Cn1cc(-c2ccnc(NC(=O)c3cccs3)c2)c(-c2ccc(Cl)s2)n1 [Example 320]
log p [4]: 4.62^[a]
